Source: ChEMBL document CHEMBL1949547, “Computer-assisted rational design, synthesis, and bioassay of non-steroidal anti-inflammatory agents” (2012)

Tests used:
Type in all cases: functional
Conditions in all cases: route intraperitoneal
Rattus norvegicus [1] = test: Antiinflammatory activity in Wister albino rat assessed as inhibition of carrageenan-induced paw edema at 50 mg/kg, ip administered 1 hr before carrageenan challenge measured after 4 hrs by plethysmometer relative to control
Rattus norvegicus [2] = test: Antiinflammatory activity in Wister albino rat assessed as inhibition of carrageenan-induced paw edema at 50 mg/kg, ip administered 1 hr before carrageenan challenge measured after 2 hrs by plethysmometer relative to control
Rattus norvegicus [3] = test: Antiinflammatory activity in Wister albino rat assessed as inhibition of carrageenan-induced paw edema at 50 mg/kg, ip administered 1 hr before carrageenan challenge measured after 3 hrs by plethysmometer relative to control
Rattus norvegicus [4] = test: Antiinflammatory activity in Wister albino rat assessed as inhibition of carrageenan-induced paw edema at 50 mg/kg, ip administered 1 hr before carrageenan challenge measured after 24 hrs by plethysmometer relative to control
Rattus norvegicus [5] = test: Antiinflammatory activity in Wister albino rat assessed as inhibition of carrageenan-induced paw edema at 50 mg/kg, ip administered 1 hr before carrageenan challenge measured after 4 hrs by plethysmometer relative to indomethacin
Rattus norvegicus [6] = test: Antiinflammatory activity in Wister albino rat assessed as inhibition of carrageenan-induced paw edema at 50 mg/kg, ip administered 1 hr before carrageenan challenge measured after 1 hr by plethysmometer relative to control
Rattus norvegicus [7] = test: Antiinflammatory activity in Wister albino rat assessed as inhibition of carrageenan-induced paw edema at 10 mg/kg, ip administered 1 hr before carrageenan challenge measured after 4 hrs by plethysmometer relative to control
Rattus norvegicus [8] = test: Antiinflammatory activity in Wister albino rat assessed as inhibition of carrageenan-induced paw edema at 10 mg/kg, ip administered 1 hr before carrageenan challenge measured after 24 hrs by plethysmometer relative to control
Rattus norvegicus [9] = test: Antiinflammatory activity in Wister albino rat assessed as inhibition of carrageenan-induced paw edema at 10 mg/kg, ip administered 1 hr before carrageenan challenge measured after 2 hrs by plethysmometer relative to control
Rattus norvegicus [10] = test: Antiinflammatory activity in Wister albino rat assessed as inhibition of carrageenan-induced paw edema at 10 mg/kg, ip administered 1 hr before carrageenan challenge measured after 3 hrs by plethysmometer relative to control
Rattus norvegicus [11] = test: Antiinflammatory activity in Wister albino rat assessed as inhibition of carrageenan-induced paw edema at 10 mg/kg, ip administered 1 hr before carrageenan challenge measured after 1 hr by plethysmometer relative to control

Structure (SMILES)	inhibition in vivo at 50 mg/kg (Rattus norvegicus [1]) [%]	inhibition in vivo at 50 mg/kg (Rattus norvegicus [2]) [%]	inhibition in vivo at 50 mg/kg (Rattus norvegicus [3]) [%]	inhibition in vivo at 50 mg/kg (Rattus norvegicus [4]) [%]	inhibition in vivo at 50 mg/kg (Rattus norvegicus [5]) [%]	inhibition in vivo at 50 mg/kg (Rattus norvegicus [6]) [%]	further results
CCOC(=O)c1c(-c2ccc(C)cc2)cc(-c2ccccc2)nc1Nc1ccc(Cl)cc1	79.4	–	–	–	–	–	–
CCOC(=O)c1c(-c2ccc(Cl)c(Cl)c2)cc(-c2ccccc2)nc1Nc1ccc(C)cc1	59.8	62.1	59.3	40.8	87.9	59	–
Cn1c([S-])n[n+]2c(N)c(C#N)c(-c3ccc(N4CCCCC4)cc3)c(C#N)c12	51.1	–	–	–	–	–	–
CCOC(=O)c1c(-c2ccc(Cl)c(Cl)c2)cc(-c2ccccc2)nc1Nc1ccc(Cl)cc1	62.4	61.9	62.2	52.7	91.8	46.2	–
CCOC(=O)c1c(-c2ccc(F)cc2)cc(-c2ccccc2)nc1N1CCOCC1	72.7	–	–	–	–	–	–
CCOC(=O)c1c(-c2ccc(Cl)cc2)cc(-c2ccccc2)nc1N1CCCCC1	70.1	29.1	24	36.4	103	59.3	–
CCOC(=O)c1c(-c2ccc(Cl)cc2)cc(-c2ccccc2)nc1Nc1ccc(OC)cc1	38.9	61.1	68.8	39.6	57.2	33.3	–
CCOC(=O)c1c(-c2ccc(Cl)cc2)cc(-c2ccccc2)nc1Nc1ccc(C)cc1	61.8	32.6	82.4	62.7	90.9	69.5	–
CCOC(=O)c1c(-c2ccc(F)cc2)cc(-c2ccccc2)nc1Nc1ccc(Cl)cc1	78.4	–	–	–	–	–	–
CCOC(=O)c1c(-c2ccc(Cl)cc2)cc(-c2ccccc2)nc1N1CCOCC1	81.3	54.5	69.8	61.7	120	59.5	–
C=CCn1c([S-])n[n+]2c(N)c(C#N)c(-c3ccc(N4CCOCC4)cc3)c(C#N)c12	60.6	–	–	–	–	–	–
CCOC(=O)c1c(-c2ccc(C)cc2)cc(-c2ccccc2)nc1Nc1ccc(OC)cc1	89.4	–	–	–	–	–	–
CCOC(=O)c1c(-c2ccc(Cl)c(Cl)c2)cc(-c2ccccc2)nc1N1CCOCC1	65.7	74.3	67.7	61.6	96.6	63.5	–
CCOC(=O)c1c(-c2ccc(F)cc2)cc(-c2ccccc2)nc1N1CCCCC1	76	–	–	–	–	–	–
Cn1c([S-])n[n+]2c(N)c(C#N)c(-c3ccc(N4CCOCC4)cc3)c(C#N)c12	45.4	–	–	–	–	–	–
COc1ccc2c(c1)c(CC(=O)O)c(C)n2C(=O)c1ccc(Cl)cc1 [INDOMETHACIN]	–	–	–	–	100	–	inhibition in vivo at 10 mg/kg (Rattus norvegicus [7]): 68%; inhibition in vivo at 10 mg/kg (Rattus norvegicus [8]): 76.9%; inhibition in vivo at 10 mg/kg (Rattus norvegicus [9]): 59.9%; inhibition in vivo at 10 mg/kg (Rattus norvegicus [10]): 64.8%; inhibition in vivo at 10 mg/kg (Rattus norvegicus [11]): 62.8%
N#Cc1c(-c2ccc(N3CCOCC3)cc2)c(C#N)c2n(Cc3ccccc3)c([S-])n[n+]2c1N	39.3	–	–	–	–	–	–
CCOC(=O)c1c(-c2ccc(F)cc2)cc(-c2ccccc2)nc1Nc1ccccc1	76	–	–	–	–	–	–
CCOC(=O)c1c(-c2ccc(Cl)cc2)cc(-c2ccccc2)nc1Nc1ccccc1	83.8	73.9	73.7	46.5	123	62.3	–
C=CCn1c([S-])n[n+]2c(N)c(C#N)c(-c3ccc(N4CCCCC4)cc3)c(C#N)c12	68.5	–	–	–	–	–	–
N#Cc1c(-c2ccc(N3CCCCC3)cc2)c(C#N)c2n(Cc3ccccc3)c([S-])n[n+]2c1N	67.4	–	–	–	–	–	–
CN1CCN(c2ccc(-c3c(C#N)c(N)[n+]4nc([S-])n(C)c4c3C#N)cc2)CC1	36.6	–	–	–	–	–	–
CCOC(=O)c1c(-c2ccc(Cl)cc2)cc(-c2ccccc2)nc1Nc1ccc(Cl)cc1	65.2	40.6	31.2	32.9	95.9	44.6	–
CCOC(=O)c1c(-c2ccc(C)cc2)cc(-c2ccccc2)nc1N1CCCCC1	78	–	–	–	–	–	–
CCOC(=O)c1c(-c2ccc(Cl)c(Cl)c2)cc(-c2ccccc2)nc1N1CCCCC1	64.7	67.9	46.3	48.9	95.1	53.5	–
CCOC(=O)c1c(-c2ccc(C)cc2)cc(-c2ccccc2)nc1N1CCOCC1	73	–	–	–	–	–	–
CCOC(=O)c1c(-c2ccc(Cl)cc2)cc(-c2ccccc2)nc1N1CCN(C)CC1	37.8	39.6	67.8	53.2	55.6	65.8	–
